Read-outs that look alike come from different tables or passages of the source.
Columns and labels:
Recombinant JAK1 = molecular target: T1, Recombinant JAK1 (Homo sapiens, UniProt P23458); assay: JAK biochemical assay (LANCE Ultra TR-FRET), JAK1; conditions: recombinant JAK1, TR-FRET; read-out: Biochemical Assay (μM) JAK1
T1 construct: purchased Carna Biosciences
Summary of the method: (§1)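 Kinase reactions ran in buffer of 50 mM HEPES pH 7.5 with 1 mM EGTA, 10 mM MgCl2, 2 mM DTT and 0.01% Tween-20, using recombinant enzyme. Phosphorylated ULight substrate was detected by TR-FRET, and compound effect expressed as % inhibition against vehicle.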

Recombinant JAK2 = molecular target: T2, Recombinant JAK2 (Homo sapiens, UniProt O60674); assay: JAK biochemical assay (LANCE Ultra TR-FRET), JAK2; conditions: recombinant JAK2, TR-FRET; read-out: Biochemical Assay (μM) JAK2
T2 construct: purchased Carna Biosciences
T2 sequence (O60674 whole entry): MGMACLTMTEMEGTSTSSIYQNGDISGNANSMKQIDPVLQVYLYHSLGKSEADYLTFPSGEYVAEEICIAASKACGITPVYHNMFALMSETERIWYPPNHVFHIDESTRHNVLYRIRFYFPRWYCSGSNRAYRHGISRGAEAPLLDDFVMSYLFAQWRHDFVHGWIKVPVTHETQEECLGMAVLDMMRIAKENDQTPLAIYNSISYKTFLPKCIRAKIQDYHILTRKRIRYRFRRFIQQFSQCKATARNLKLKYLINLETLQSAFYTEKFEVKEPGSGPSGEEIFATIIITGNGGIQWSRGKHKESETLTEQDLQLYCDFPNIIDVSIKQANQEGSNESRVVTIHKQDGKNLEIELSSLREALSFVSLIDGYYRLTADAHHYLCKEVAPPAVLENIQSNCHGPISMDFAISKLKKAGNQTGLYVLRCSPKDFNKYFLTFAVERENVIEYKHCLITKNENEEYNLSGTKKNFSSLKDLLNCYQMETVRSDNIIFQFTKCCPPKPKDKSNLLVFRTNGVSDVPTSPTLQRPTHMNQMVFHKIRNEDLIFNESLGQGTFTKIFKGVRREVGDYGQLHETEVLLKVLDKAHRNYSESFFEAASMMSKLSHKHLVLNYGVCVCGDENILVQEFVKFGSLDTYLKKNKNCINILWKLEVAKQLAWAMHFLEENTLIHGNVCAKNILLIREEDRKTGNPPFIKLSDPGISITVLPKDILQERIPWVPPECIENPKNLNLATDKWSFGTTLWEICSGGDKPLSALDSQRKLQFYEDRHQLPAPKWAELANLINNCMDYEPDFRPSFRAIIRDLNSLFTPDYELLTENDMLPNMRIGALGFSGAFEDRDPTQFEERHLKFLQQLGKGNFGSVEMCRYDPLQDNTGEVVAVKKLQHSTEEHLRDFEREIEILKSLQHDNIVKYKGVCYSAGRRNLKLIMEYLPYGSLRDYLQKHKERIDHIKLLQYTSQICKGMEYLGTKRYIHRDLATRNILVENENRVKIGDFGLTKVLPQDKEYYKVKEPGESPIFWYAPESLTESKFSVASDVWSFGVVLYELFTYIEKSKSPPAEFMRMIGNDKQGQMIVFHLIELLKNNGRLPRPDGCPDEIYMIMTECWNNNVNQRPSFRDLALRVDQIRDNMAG
Summary of the method: as §1

[1] = tested on: STAT3 phosphorylation by IL-6 in TF-1 cells; assay: JAK cellular assay: STAT3 phosphorylation by IL-6 in TF-1 cells (HTRF); assay type: cell-based; conditions: IL-6 30 ng/ml, pSTAT3 HTRF, read-out: Cell Based Assay (μM) TF-1/IL-6/pSTAT3
Method: (§2) TF-1 cells were starved overnight in OptiMEM medium with 0.5% charcoal stripped fetal bovine serum, 0.1 mM nonessential amino acids (NEAA), 1 mM sodium pyruvate and without phenol red in CO2 incubator maintained at 37° c. Next day, cells were resuspended in RPMI without phenol red and dispensed into a 96 well plate at a final cell density of 1,20,000 cells per well. Compounds were diluted in DMSO and added to cells and incubated for 30 minutes in CO2 incubator maintained at 37° c. Final DMSO concentration in cell based assay was 0.2%. Human recombinant cytokines, IL-6 (30 ng/ml) and GMCSF (5 ng/ml) were added to the plate containing cells along with compound and incubated for 20 minutes with gentle tapping at every 5 minutes once. Compound mediated effects on STAT3 and STAT5 phosphorylation was measured in the lysates prepared by using CISBIO pSTAT3 and pSTAT5 detection kits by HTRF method. Background signal obtained from cells which were not activated with cytokines, was subtracted from vehicle controls and compound treated wells.

[2] = tested on: STAT5 phosphorylation by GMCSF in TF-1 cells; assay: JAK cellular assay: STAT5 phosphorylation by GMCSF in TF-1 cells (HTRF); assay type: cell-based; conditions: TF-1 cells, GMCSF 5 ng/ml, pSTAT5 HTRF, read-out: Cell Based Assay (μM) TF-1/GMCSF/pSTAT5
Method: as §2

Recombinant TYK2 = molecular target: T3, Recombinant TYK2 (Homo sapiens, UniProt P29597); assay: JAK biochemical assay (LANCE Ultra TR-FRET), TYK2; conditions: recombinant TYK2, TR-FRET; read-out: Biochemical Assay (μM) TYK2
T3 construct: purchased Carna Biosciences
T3 sequence (P29597 whole entry): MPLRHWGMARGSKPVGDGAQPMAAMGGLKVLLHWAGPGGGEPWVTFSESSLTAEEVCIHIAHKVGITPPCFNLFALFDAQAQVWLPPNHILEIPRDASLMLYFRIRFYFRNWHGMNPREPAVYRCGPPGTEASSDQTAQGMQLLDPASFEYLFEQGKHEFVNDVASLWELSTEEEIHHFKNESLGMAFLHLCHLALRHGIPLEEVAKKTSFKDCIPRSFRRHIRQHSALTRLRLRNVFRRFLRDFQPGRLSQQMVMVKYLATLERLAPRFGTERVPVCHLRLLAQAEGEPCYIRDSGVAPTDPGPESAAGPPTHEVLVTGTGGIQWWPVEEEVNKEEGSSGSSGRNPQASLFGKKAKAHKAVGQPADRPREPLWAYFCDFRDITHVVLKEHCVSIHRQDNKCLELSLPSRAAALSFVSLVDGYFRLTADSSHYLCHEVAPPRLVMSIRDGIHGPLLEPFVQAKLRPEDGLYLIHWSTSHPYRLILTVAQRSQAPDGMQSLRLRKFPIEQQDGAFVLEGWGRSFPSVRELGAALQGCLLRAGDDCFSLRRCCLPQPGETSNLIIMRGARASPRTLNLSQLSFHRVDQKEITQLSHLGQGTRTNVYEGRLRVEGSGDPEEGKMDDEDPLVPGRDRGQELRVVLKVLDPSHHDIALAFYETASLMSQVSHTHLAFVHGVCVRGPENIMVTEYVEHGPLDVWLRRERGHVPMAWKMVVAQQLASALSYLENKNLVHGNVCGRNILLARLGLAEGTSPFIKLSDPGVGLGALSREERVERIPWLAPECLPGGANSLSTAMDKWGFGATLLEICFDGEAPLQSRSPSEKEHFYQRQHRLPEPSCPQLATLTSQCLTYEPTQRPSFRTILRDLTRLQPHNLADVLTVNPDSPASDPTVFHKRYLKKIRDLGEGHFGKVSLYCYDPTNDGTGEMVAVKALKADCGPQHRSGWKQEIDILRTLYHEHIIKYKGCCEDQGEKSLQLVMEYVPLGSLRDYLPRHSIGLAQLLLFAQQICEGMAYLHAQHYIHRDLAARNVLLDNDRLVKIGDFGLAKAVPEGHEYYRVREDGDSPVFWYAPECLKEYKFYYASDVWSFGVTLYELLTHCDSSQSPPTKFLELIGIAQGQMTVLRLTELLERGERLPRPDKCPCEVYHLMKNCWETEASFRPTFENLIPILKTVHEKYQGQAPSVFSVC
Summary of the method: as §1

Recombinant JAK3 = molecular target: T4, Recombinant JAK3 (Homo sapiens, UniProt P52333); assay: JAK biochemical assay (LANCE Ultra TR-FRET), JAK3; conditions: recombinant JAK3, TR-FRET; read-out: Biochemical Assay (μM) JAK3
T4 construct: purchased Carna Biosciences
T4 sequence (P52333 1-1124): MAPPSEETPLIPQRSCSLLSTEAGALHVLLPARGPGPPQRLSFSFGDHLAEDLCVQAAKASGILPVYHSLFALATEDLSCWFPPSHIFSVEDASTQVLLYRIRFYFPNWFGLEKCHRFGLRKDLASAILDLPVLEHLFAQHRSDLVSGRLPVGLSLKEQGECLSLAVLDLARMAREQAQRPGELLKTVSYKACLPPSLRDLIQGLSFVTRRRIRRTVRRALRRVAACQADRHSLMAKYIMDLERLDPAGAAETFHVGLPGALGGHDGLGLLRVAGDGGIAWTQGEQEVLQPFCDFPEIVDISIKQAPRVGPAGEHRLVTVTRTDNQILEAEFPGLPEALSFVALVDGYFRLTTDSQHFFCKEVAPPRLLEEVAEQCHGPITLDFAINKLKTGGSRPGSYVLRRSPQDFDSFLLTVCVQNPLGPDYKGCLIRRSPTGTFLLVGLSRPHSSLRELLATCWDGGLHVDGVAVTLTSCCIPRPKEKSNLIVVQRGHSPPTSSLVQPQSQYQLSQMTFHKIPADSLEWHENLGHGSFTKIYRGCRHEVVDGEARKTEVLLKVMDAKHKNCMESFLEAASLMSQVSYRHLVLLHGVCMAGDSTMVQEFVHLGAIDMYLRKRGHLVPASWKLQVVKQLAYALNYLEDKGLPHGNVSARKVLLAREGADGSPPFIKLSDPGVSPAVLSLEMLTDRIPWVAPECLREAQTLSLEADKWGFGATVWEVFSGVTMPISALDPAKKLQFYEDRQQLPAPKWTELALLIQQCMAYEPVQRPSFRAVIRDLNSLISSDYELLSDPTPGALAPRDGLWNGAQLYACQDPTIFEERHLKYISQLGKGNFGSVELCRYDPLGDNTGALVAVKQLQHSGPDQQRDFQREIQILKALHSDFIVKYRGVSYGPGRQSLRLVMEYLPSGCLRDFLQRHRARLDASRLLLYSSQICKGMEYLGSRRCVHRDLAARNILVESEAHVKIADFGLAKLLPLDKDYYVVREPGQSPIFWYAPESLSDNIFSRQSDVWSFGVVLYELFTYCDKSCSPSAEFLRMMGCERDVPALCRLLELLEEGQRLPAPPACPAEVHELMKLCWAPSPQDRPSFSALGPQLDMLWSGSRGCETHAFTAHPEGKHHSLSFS
Summary of the method: as §1

T1 sequence (P23458 whole entry): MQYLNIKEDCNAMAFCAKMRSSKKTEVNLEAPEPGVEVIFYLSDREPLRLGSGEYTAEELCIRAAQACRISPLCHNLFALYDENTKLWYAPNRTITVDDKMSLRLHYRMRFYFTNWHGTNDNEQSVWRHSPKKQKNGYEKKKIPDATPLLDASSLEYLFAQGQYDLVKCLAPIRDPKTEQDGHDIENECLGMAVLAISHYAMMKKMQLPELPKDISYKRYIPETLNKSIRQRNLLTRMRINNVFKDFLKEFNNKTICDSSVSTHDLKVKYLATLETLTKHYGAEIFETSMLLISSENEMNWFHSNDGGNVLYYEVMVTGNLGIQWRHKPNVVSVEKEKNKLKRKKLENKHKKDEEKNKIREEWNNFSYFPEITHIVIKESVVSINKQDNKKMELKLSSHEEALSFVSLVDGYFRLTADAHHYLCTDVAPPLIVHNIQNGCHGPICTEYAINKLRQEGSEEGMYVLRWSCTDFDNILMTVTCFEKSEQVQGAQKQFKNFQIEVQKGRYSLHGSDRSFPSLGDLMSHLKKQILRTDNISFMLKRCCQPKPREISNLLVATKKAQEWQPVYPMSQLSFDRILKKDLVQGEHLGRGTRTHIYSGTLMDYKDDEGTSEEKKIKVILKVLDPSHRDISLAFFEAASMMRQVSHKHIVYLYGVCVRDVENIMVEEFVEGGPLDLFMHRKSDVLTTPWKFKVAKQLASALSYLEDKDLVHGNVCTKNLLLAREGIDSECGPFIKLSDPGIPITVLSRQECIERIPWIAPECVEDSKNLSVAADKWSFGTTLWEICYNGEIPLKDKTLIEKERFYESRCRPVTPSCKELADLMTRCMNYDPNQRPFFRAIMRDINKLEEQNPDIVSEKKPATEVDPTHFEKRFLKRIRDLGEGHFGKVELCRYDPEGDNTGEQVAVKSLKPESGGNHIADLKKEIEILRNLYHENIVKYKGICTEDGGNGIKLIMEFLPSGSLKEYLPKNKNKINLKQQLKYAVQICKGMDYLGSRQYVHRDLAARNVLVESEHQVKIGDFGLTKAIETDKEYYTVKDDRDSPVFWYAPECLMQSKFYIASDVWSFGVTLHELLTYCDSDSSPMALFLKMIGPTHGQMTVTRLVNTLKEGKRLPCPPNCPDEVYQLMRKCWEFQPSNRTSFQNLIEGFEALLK

IC50 (Recombinant JAK1) [µM]	IC50 (Recombinant JAK2) [µM]	IC50 ([1]; Homo sapiens, TF-1, TF-1 cells) [µM]	IC50 ([2]; Homo sapiens) [µM]	IC50 (Recombinant TYK2) [µM]	IC50 (Recombinant JAK3) [µM]	IC50 ([1]; TF-1 cells) [µM]	IC50 [2] [µM]	SMILES
< 0.5	< 0.5	> 10	> 10	> 0.5	< 0.5	–	–	CC(NC(=O)Nc1ccc(-c2ccnc3[nH]c(=O)[nH]c23)cc1)C(F)(F)F (stereo not shown) [Example 1002, 1-(1,1,1-trifluoropropan-2-yl)-3-(4-(2,3-dihydro-2-oxo-1H-imidazo[4,5-b]pyridin-7-yl)phenyl)urea]
0.041	0.048	> 1	> 10	0.122	0.283	–	–	O=C(NCC(F)(F)F)n1cc(-c2ccnc3[nH]c(=O)[nH]c23)cn1 [Example 1026, N-(2,2,2-trifluoroethyl)-4-(2,3-dihydro-2-oxo-1H-imidazo[4,5-b]pyridin-7-yl)-1H-pyrazole-1-carboxamide]
0.03	0.031	4.7	> 10	0.053	0.123	–	–	N#CC(NC(=O)n1cc(-c2ccnc3[nH]c(=O)[nH]c23)cn1)C1CC1 (stereo not shown) [Example 1043, N-(cyano(cyclopropyl)methyl)-4-(2,3-dihydro-2-oxo-1H-imidazo[4,5-b]pyridin-7-yl)-1H-pyrazole-1-carboxamide]
< 0.5	< 0.5	> 10	> 10	< 0.5	< 0.5	–	–	CC(CC#N)NC(=O)n1cc(-c2ccnc3[nH]c(=O)[nH]c23)cn1 (stereo not shown) [Example 1046, N-(1-cyanopropan-2-yl)-4-(2,3-dihydro-2-oxo-1H-imidazo[4,5-b]pyridin-7-yl)-1H-pyrazole-1-carboxamide]
< 0.5	< 0.5	4.9	10	< 0.5	< 0.5	–	–	CC(C)[C@@H](C#N)NC(=O)n1cc(-c2ccnc3[nH]c(=O)[nH]c23)cn1 [Example 1047, N-((S)-1-cyano-2-methylpropyl)-4-(2,3-dihydro-2-oxo-1H-imidazo[4,5-b]pyridin-7-yl)-1H-pyrazole-1-carboxamide]
< 0.5	< 0.5	> 10	> 10	< 0.5	< 0.5	–	–	N#CC1CN(C(=O)n2cc(-c3ccnc4[nH]c(=O)[nH]c34)cn2)C1 [Example 1048, 1-(4-(2-oxo-2,3-dihydro-1H-imidazo[4,5-b]pyridin-7-yl)-1H-pyrazole-1-carbonyl)azetidine-3-carbonitrile]
< 0.5	< 0.5	< 10	> 10	< 0.5	< 0.5	–	–	CC(C)[C@H](C#N)NC(=O)n1cc(-c2ccnc3[nH]c(=O)[nH]c23)cn1 [Example 1049, N-((R)-1-cyano-2-methylpropyl)-4-(2,3-dihydro-2-oxo-1H-imidazo[4,5-b]pyridin-7-yl)-1H-pyrazole-1-carboxamide]
< 0.5	< 0.5	< 10	> 10	< 0.5	< 0.5	–	–	N#CCC(NC(=O)n1cc(-c2ccnc3[nH]c(=O)[nH]c23)cn1)C(F)(F)F (stereo not shown) [Example 1050, N-(3-cyano-1,1,1-trifluoropropan-2-yl)-4-(2,3-dihydro-2-oxo-1H-imidazo[4,5-b]pyridin-7-yl)-1H-pyrazole-1-carboxamide]
< 0.5	< 0.5	< 10	> 10	< 0.5	> 1	–	–	N#CCC(NC(=O)n1cc(-c2ccnc3[nH]c(=O)[nH]c23)cn1)C1CC1 (stereo not shown) [Example 1051, N-(2-cyano-1-cyclopropylethyl)-4-(2,3-dihydro-2-oxo-1H-imidazo[4,5-b]pyridin-7-yl)-1H-pyrazole-1-carboxamide]
< 0.5	< 0.5	–	–	< 0.5	> 0.5	> 10	> 10	CC(CC#N)NC(=O)n1cc(-c2ccnc3[nH]c(=O)[nH]c23)cn1 (stereo not shown) [Example 1052, N-(1-cyanopropan-2-yl)-4-(2,3-dihydro-2-oxo-1H-imidazo[4,5-b]pyridin-7-yl)-1H-pyrazole-1-carboxamide]
< 1	< 1	–	–	> 1	–	> 10	> 10	CC(CC#N)NC(=O)n1cc(-c2ccnc3[nH]c(=O)[nH]c23)cn1 (stereo not shown) [Example 1053, N-(1-cyanopropan-2-yl)-4-(2,3-dihydro-2-oxo-1H-imidazo[4,5-b]pyridin-7-yl)-1H-pyrazole-1-carboxamide]
> 10	> 0.5	> 1	10	> 1	> 1	–	–	N#C[C@H](NC(=O)n1cc(-c2ccnc3[nH]c(=O)[nH]c23)cn1)C1CC1 [Example 1054, N-((R)-cyano(cyclopropyl)methyl)-4-(2,3-dihydro-2-oxo-1H-imidazo[4,5-b]pyridin-7-yl)-1H-pyrazole-1-carboxamide]
> 1	–	> 10	> 10	> 1	> 1	–	–	N#CCCC1CCN(C(=O)n2cc(-c3ccnc4[nH]c(=O)[nH]c34)cn2)C1 (stereo not shown) [Example 1061, 3-(1-(4-(2-oxo-2,3-dihydro-1H-imidazo[4,5-b]pyridin-7-yl)-1H-pyrazole-1-carbonyl)pyrrolidin-3-yl)propanenitrile]
> 0.5	> 0.5	> 10	> 10	–	> 0.5	–	–	CS(=O)(=O)CCC(C#N)NC(=O)n1cc(-c2ccnc3[nH]cnc23)cn1 (stereo not shown) [Example 1072, N-(1-cyano-3-(methylsulfonyl)propyl)-4-(3H-imidazo[4,5-b]pyridin-7-yl)-1H-pyrazole-1-carboxamide]
–	> 0.5	10	> 10	> 1	> 1	–	–	N#CC(c1ccc(-n2cc(-c3ccnc4[nH]cnc34)cn2)nc1)N1CCOCC1 (stereo not shown) [Example 1112, 2-(6-(4-(3H-imidazo[4,5-b]pyridin-7-yl)-1H-pyrazol-1-yl)pyridin-3-yl)-2-morpholinoacetonitrile]
< 0.1	–	> 1	> 10	> 1	< 0.1	–	–	OC(c1ccc(-n2cc(-c3ccnc4[nH]cnc34)cn2)nc1)(C1CCOCC1)C(F)(F)F (stereo not shown) [Example 1134, 1-(6-(4-(3H-imidazo[4,5-b]pyridin-7-yl)-1H-pyrazol-1-yl)pyridin-3-yl)-2,2,2-trifluoro-1-(tetrahydro-2H-pyran-4-yl)ethanol]
